Results: patent US8115017B2, “C-phenyl 1-thioglucitol compound” (Taisho Pharmaceutical Co., Ltd, priority 2006, dated 2012)

What was measured:
human SGLT1 = biological target: T1, human SGLT1 (Homo sapiens, UniProt P13866); assay: Inhibition test for sodium-dependent sugar uptake in CHO-K1 cells stably expressing human SGLT1; assay type: cell-based; conditions: [14C]methyl α-D-glucopyranoside uptake, 37° C., 30 minutes, read-out: human SGLT1 IC50 (50% inhibition of sugar uptake)
T1 construct: expressed in transfected cells; host or cells: CHO-K1
T1 sequence (P13866 1-664): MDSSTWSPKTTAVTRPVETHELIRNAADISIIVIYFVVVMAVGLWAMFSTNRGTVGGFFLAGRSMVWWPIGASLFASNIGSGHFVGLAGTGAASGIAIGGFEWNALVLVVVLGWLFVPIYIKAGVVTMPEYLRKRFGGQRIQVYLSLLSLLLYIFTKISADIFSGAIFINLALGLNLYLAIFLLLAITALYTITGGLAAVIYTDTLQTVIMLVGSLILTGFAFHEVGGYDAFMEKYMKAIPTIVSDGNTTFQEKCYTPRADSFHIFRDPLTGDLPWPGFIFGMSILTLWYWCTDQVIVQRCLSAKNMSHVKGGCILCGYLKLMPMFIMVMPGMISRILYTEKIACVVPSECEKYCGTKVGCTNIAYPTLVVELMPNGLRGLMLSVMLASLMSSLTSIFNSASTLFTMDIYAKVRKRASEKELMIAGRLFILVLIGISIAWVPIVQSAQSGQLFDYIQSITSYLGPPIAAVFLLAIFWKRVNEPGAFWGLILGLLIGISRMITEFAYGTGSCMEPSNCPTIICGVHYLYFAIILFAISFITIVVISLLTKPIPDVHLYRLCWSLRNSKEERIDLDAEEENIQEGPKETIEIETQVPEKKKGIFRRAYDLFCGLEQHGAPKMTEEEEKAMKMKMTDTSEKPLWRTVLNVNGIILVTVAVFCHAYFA
Protocol: (§1) A human SGLT1 sequence (NM_000343) was reverse-transcribed and amplified from human small intestine mRNA, and then introduced into pCMV-tag5A (Stratagene). Likewise, a human SGLT2 sequence (NM_003041) was prepared from human kidney mRNA in the same manner and introduced into pcDNA3.1+hygro (Invitrogen). The individual cloned sequences were confirmed to be identical with the sequences reported.
(§2) The human SGLT1 and human SGLT2 expression vectors were each transfected into CHO-K1 cells using lipofectamine 2000 (Invitrogen). The cells were cultured in the presence of 500 μg/mL geneticin (SGLT1) or hygromycin B (SGLT2) to select resistant strains and specific activity of sugar uptake in the system shown below was used as an indicator to obtain SGLT-expressing cells.
(§3) The cells stably expressing human SGLT1 or human SGLT2 were used for an inhibition test of sodium-dependent glucose uptake activity.
(§4) Pretreatment buffer (140 mM choline chloride, 2 mM KCl, 1 mM CaCl2, 1 mM MgCl2, 10 mM HEPES/5 mM Tris, pH 7.4) was added in a volume of 200 μL to human SGLT1-expressing cells and 2 mL to human SGLT2-expressing cells, followed by incubation for 20 minutes. The pretreatment buffer was removed and replaced with uptake buffer containing a test compound (1 mM methyl α-D-glucopyranoside (containing [^14C]methyl α-D-glucopyranoside), 145 mM NaCl, 2 mM KCl, 1 mM CaCl2, 1 mM MgCl2, 10 mM HEPES/5 mM Tris, pH 7.4) in a volume of 75 μL for SGLT1 and 200 μL for SGLT2. Uptake reaction was performed at 37° C. for 30 minutes (SGLT1) or 1 hour (SGLT2). After the reaction, the cells were washed twice with washing buffer (10 mM methyl α-D-glucopyranoside, 140 mM choline chloride, 2 mM KCl, 1 mM CaCl2, 1 mM MgCl2, 10 mM HEPES/5 mM Tris, pH 7.4) in a volume of 200 μL for SGLT1 and 2 mL for SGLT2, and then dissolved in a 0.2 M NaOH solution (75 μL for SGLT1 and 400 μL for SGLT2). A liquid scintillator (Perkin Elmer) was added and mixed well with each sample, followed by measurement of radioactivity using a microBETA for SGLT1 or a liquid scintillation counter for SGLT2 (Beckman Coulter). For the control group, uptake buffer containing no test compound was prepared. Moreover, another uptake buffer containing choline chloride instead of NaCl was also prepared for basal uptake.
(§5) For determination of IC50 values, test compounds prepared at 6 appropriate concentrations were used and their concentrations required for 50% inhibition of the amount of sugar uptake (IC50 values) were calculated relative to the amount of sugar uptake in the control group (100%).

human SGLT2 = biological target: T2, human SGLT2 (Homo sapiens, UniProt P31639); assay: Inhibition test for sodium-dependent sugar uptake in CHO-K1 cells stably expressing human SGLT2; assay type: cell-based; conditions: [14C]methyl α-D-glucopyranoside uptake, 37° C., 1 hour, read-out: human SGLT2 IC50 (50% inhibition of sugar uptake)
T2 construct: expressed in transfected cells; host or cells: CHO-K1
T2 sequence (P31639 1-672): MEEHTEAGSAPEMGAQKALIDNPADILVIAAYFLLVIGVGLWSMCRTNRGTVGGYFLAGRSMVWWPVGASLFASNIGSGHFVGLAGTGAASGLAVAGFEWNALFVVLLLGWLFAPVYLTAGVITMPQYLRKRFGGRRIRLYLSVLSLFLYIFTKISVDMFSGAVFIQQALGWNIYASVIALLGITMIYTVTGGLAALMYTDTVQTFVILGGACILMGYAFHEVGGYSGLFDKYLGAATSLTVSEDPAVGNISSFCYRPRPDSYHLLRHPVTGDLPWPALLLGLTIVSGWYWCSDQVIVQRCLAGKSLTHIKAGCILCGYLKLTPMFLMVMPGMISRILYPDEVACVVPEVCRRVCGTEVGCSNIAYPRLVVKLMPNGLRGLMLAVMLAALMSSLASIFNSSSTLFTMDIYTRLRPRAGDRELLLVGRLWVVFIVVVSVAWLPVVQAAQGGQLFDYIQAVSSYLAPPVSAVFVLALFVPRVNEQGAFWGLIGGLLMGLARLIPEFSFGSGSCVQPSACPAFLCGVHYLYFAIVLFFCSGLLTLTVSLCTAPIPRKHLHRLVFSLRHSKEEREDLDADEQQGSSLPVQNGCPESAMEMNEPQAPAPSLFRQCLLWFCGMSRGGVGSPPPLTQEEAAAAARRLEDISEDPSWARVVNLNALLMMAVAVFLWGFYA
Protocol: as §1, §2, §3, §4, §5

[1] = tested on: Streptozotocin-induced diabetic model rats; assay: Oral glucose tolerance test in streptozotocin-induced diabetic model rats (hypoglycemic effect); assay type: in vivo, rat; conditions: STZ diabetic SD/IGS rats; 1 mg/kg oral; glucose 2 g/kg oral; decrease in blood glucose ΔAUC 0-1 h relative to control group
Protocol: SD/IGS rats at 7 weeks of age (male, Charles River Laboratories Japan Inc.) were fasted for about 16 hours and then injected with 50 mg/kg streptozotocin (STZ) via the tail vein under ether anesthesia to prepare diabetic model rats. Similarly, another group of SD/IGS rats was injected with 1.25 mmol/L citric acid in physiological saline (1 mL/kg) via the tail vein under ether anesthesia to prepare normal control rats. At one week (8 weeks of age) after injection of STZ or 1.25 mmol/L citric acid in physiological saline, the rats were provided for an oral glucose tolerance test.
After the rats were fasted for about 16 hours, drug groups were each orally administered with a drug (1 mg/kg) suspended in a 0.5% aqueous carboxymethylcellulose (CMC) solution, while the control group was orally administered with a 0.5% aqueous CMC solution alone. At 5 minutes after drug administration, a glucose solution (2 g/kg) was orally administered and blood was collected at 5 points in total: before drug administration (0 hour) and 0.25, 0.5, 1 and 2 hours after oral administration.
Blood was collected from the orbital venous sinus of each rat under ether anesthesia using a heparin-coated blood collection tube, and centrifuged to separate plasma. Plasma glucose concentrations were quantified by measurement with a Glucose CII-Test Wako (Wako Pure Chemical Industries, Ltd., Japan). To determine the intensity of hypoglycemic effect, blood glucose levels measured between 0 and 1 hour in each drug group were analyzed by the trapezoidal method to calculate the area under the blood glucose-time curve (AUC), followed by basal subtraction to obtain a blood glucose increment (ΔAUC).

Row | Structure (SMILES) | IC50 (human SGLT1) [nM] | IC50 (human SGLT2) [nM] | STZ rat-OGTT (2 g/Kg) % inhibition ΔAUC0-1 h (mgh/dL) @1 mg/Kg [1] [% inhibition]
1 | Cc1cc(O)c([C@@H]2S[C@H](CO)[C@@H](O)[C@H](O)[C@H]2O)cc1Cc1ccc(CCCCC(=O)NC(C)(C)CO)cc1 [Example 8, (1S)-1,5-anhydro-1-[2-hydroxy-5-(4-{5-[(2-hydroxy-1,1-dimethylethyl)amino]-5-oxopentyl}benzyl)-4-methylphenyl]-1-thio-D-glucitol] | 79 | 38 | 
2 | Cc1cc(O)c([C@@H]2S[C@H](CO)[C@@H](O)[C@H](O)[C@H]2O)cc1Cc1ccc(CCCC(=O)NC(C)(C)CO)cc1 [Example 1, (1S)-1,5-anhydro-1-[2-hydroxy-5-(4-{4-[(2-hydroxy-1,1-dimethylethyl)amino]-4-oxobutyl}benzyl)-4-methylphenyl]-1-thio-D-glucitol] | 11 | 17 | 70.4
3 | Cc1cc(CCCC(=O)NC(C)(C)CO)ccc1Cc1cc([C@@H]2S[C@H](CO)[C@@H](O)[C@H](O)[C@H]2O)c(O)cc1C [Example 5, (1S)-1,5-anhydro-1-[2-hydroxy-5-(4-{4-[(2-hydroxy-1,1-dimethylethyl)amino]-4-oxobutyl}-2-methylbenzyl)-4-methylphenyl]-1-thio-D-glucitol] | 20 | 99 | 
4 | Cc1cc(O)c([C@@H]2S[C@H](CO)[C@@H](O)[C@H](O)[C@H]2O)cc1Cc1ccc(CCCC(=O)NC(C)(CO)CO)cc1 [Example 2, (1S)-1,5-anhydro-1-{2-hydroxy-5-[4-(4-{[2-hydroxy-1-(hydroxymethyl)-1-methylethyl]amino}-4-oxobutyl)benzyl]-4-methylphenyl}-1-thio-D-glucitol] | 22 | 21 | 65.4
5 | Cc1cc(O)c([C@@H]2S[C@H](CO)[C@@H](O)[C@H](O)[C@H]2O)cc1Cc1ccc(CCCC(=O)NC(CO)(CO)CO)cc1 [Example 3, (1S)-1,5-anhydro-1-{2-hydroxy-5-[4-(4-{[2-hydroxy-1,1-bis(hydroxymethyl)ethyl]amino}-4-oxobutyl)benzyl]-4-methylphenyl}-1-thio-D-glucitol] | 35 | 31 | 60.8
6 | Cc1cc(O)c([C@@H]2S[C@H](CO)[C@@H](O)[C@H](O)[C@H]2O)cc1Cc1ccc(CCCC(=O)NC(C)(C)C(N)=O)cc1 [Example 4, (1S)-1-[5-(4-{4-[(2-amino-1,1-dimethyl-2-oxoethyl)amino]-4-oxobutyl}benzyl)-2-hydroxy-4-methylphenyl]-1,5-anhydro-1-thio-D-glucitol] | 47 | 49 | 66.5
7 | Cc1cc(O)c([C@@H]2S[C@H](CO)[C@@H](O)[C@H](O)[C@H]2O)cc1Cc1ccc(CCCNC(=O)NC(C)(C)CO)cc1 [Example 6, (1S)-1-{5-[4-(3-{[(2-hydroxy-1,1-dimethylethyl)aminocarbonyl]amino}propyl)benzyl]-2-hydroxy-4-methylphenyl}-1,5-anhydro-1-thio-D-glucitol] | 22 | 32 | 69.2
